According to US11883458B2, “Herb medicine composition for alleviating or treating asthma, and oriental pharmacopuncture solution containing same and injection containing same” (priority 2019, dated 2024):

System: asthma-induced BALB/c mice (ovalbumin)
Assay: Ovalbumin-induced asthma in BALB/c mice: white blood cell, eosinophil and IgE measurement
Assay type: in vivo
Conditions: asthma-induced female BALB/c mice; injected twice a week for 4 weeks; mean of 3 mice; mouse blood
Description: Ovalbumin was administered to BALB/c mice to induce asthma. The total white blood cell (WBC) count, eosinophil count, and […] in bronchoalveolar lavage fluid (BALF) were measured.
As experimental animals, BALB/c mice (supplier: Samtako Korea), which have been widely used in asthma tests, were used. Female BALB/c mice were used and were 6 weeks old at the time of acquisition and 7 weeks old at the time of the experiment. After acquisition, the mice were acclimatized in an animal test room for 6 days, and observed at least once a day. During the acclimatization period, the mice were distinguished by skin mark using a red oil magic pen. During the administration and observation period, the mice were distinguished by skin mark using a black oil magic pen. An individual identification card was attached to a breeding cage. The mice were housed in a breeding area under the condition of a temperature of 23±3° C., a relative humidity of 55±15%, a ventilation frequency of 10 to 20 times/hr, an illumination time of 12 hours, and an illuminance of 150 to 300 Lux. During the period of acclimatization and administration, at least four mice were housed in each polycarbonate breeding cage containing an appropriate amount of rug. During the acclimatization period, mice determined to be healthy were weighed and ranked according to weight. The mice were distributed into groups so that the mean weights of each group were equal.
As an asthma inducer, refrigerated ovalbumin (OVA) (catalog No.: A5503, supplier: Sigma Aldrich, Louis, Missouri, USA) was used. As an adjuvant, refrigerated aluminum hydroxide (Alum) (catalog No.: 77161, supplier: Thermo Fisher Scientific Inc, Waltham, Massachussets, USA) was used. […]
After 4 weeks, the measurement of the white blood cell (WBC) count, eosinophil count, and IgE was performed using mouse blood. The mean values thereof were calculated, and the results are illustrated in Table 3 below.

## C[C@@H]1C[C@H]2[C@@H]3CCC4=CC(=O)C=C[C@]4(C)[C@@]3(F)[C@@H](O)C[C@]2(C)[C@@]1(O)C(=O)CO [Positive control, dexamethasone]
  Eosinophil count: 1.41 X10^2 cells/μl
  IgE: 23.45 µg/mL
  WBC count: 39.83 X10^3 cells/μl
